Values quoted from earlier work as cited in patent publication US20260355142A1, “AMORPHOUS OTE[…] COMPOSITIONS AND USES THEREOF AND DOSAGE REGIMENS FOR OTENAPROXESUL” (ANTIBE THERAPEUTICS INC., priority 2022, published 2026).

Conditions: efficacious dose of naproxen, known in the art; cited from earlier work

## COc1ccc2cc([C@H](C)C(=O)O)ccc2c1 [naproxen, (2S)-2-(6-methoxynaphthalen-2-yl) propanoic acid]
  patients with noticeable GI injury: approximately 30%
